This is an account of results in patent US12187762B2, “Dithiolsaccharide mucolytic agents and uses thereof” (The Regents of the University of California, priority 2018, dated 2025).

Entries after “also recorded” stand apart in the source; their conditions may differ.

A short description of data set [1]: Cone-and-plate rheology of elastic modulus (G′) in thiolated hydrogel substrate. Conditions: for concentration needed to cause a 40% decrease in the G′ of the hydrogel (ΔG′=−40%): 30 min incubation, dose response 0.5-10 mM. On the procedure: 2.2. Preparation of thiolated hyaluronic acid hydrogel as a model substrate: Thiolated hyaluronic acid hydrogel (Glycosil®, ESI-BIO) was solubilized in 10% DMSO/75 mM NaCl/sodium phosphate pH 7.4 buffer, prepared using degassed water. Aliquots of 250 microliter of gel solution were distributed to 1.5 ml centrifuge tubes, sealed, and incubated overnight (˜18 hours) at room temperature to allow for slow oxidation and cross-linking of the hydrogel. Gels formed by this protocol typically yielded elastic moduli of 20-30 Pa, measured by cone-and-plate rheology.
2.3. Rheological measurements: A rheometer was employed to determine the effect of the compounds disclosed herein on the elastic modulus (G′) of ex vivo human sputum or model hydrogel substrate. The terms “elastic modulus”, G′, and the like refer to the elastic modulus as known in the art. Rheological measurements were made with AR2000 or DHR cone-and-plate rheometer (TA instruments), as known in the art. For sputum samples, ˜0.8 mL was used per assay, with 40 mm 2° geometry. For thiolated hydrogel samples, 0.25 mL was used per assay, with 40 mm ½° geometry. For timesweep recordings, a solvent trap with water as solvent was employed to minimize drying. Test compounds were dissolved in water and added at 10% v/v, to result in the final concentration of interest in the sample. The effect of test compound was measured by taking measurements every 2 min, for a period of 30 min. Normalized ratio % G′ was calculated by dividing the post treatment measurement of G′ at particular timepoint by pretreatment measurement of G′. Percent change in elastic modulus (% ΔG′) was calculated by comparing the measurement at 30 min to the initial pretreatment baseline.
Rheological measurements with Compound 1, Compound 5, Compound 9 and N-acetylcysteine at concentrations between 0.5-10 mM were conducted in order to understand the dose dependence of mucolytic efficacy on concentration of the dithiol test agents (FIG. 3). Effective concentration that causes 40% change in G′ for each test agent was determined. All dithiols tested cause 40% change in G′ at concentrations <1 mM, while NAC requires ˜8-10× higher dose to achieve the same mucolytic effect.
Mucolytic efficacy data was collected in cross-linked thiolated hydrogel model system for multiple enabled dithiolsaccharide compounds and N-acetylcysteine at 5 mM.

For data set [2], the system named is primary human airway epithelial cells (AECs). The experiment in a line: G6PD release cytotoxicity assay in airway epithelial cells at air-liquid interface. The data set is classed as cell-based. The conditions noted are these: Compound 1 disodium salt, apical exposure 1 hr at 37° C. at 5, 25 and 50 mM, 6 hr recovery; compared with PBS control. The protocol: Briefly, primary tracheobronchial epithelial cells from ten donors were expanded in culture and differentiated at air-liquid interface for 21 days. Detailed cell culture protocols for airway epithelial cells can be found in Lachowicz-Scroggins et al, Cell Discov, 4, Article 7, 2018 and Widdicombe et al, Biotechniques, 39, 249-255, 2005. Compound 1 (disodium salt) was dissolved in PBS, added to apical surface of the cells at 5, 25 and 50 mM and left for 1 hr at 37° C. PBS was negative control. The apical and basolateral surfaces were washed with PBS, fresh media was added to basolateral side for 6 hr recovery period and collected for G6PD measurements. One control filter was harvested for full lysis with NP-40 lysis buffer to measure total G6PD content in cell lysates.
G6PD (glucose 6-phosphase dehydrogenase) release is a common method of assessing the extent of cellular damage or death. G6PD was measured using Vybrant® Cytotoxicity Assay Kit (ThermoFisher Scientific) and expressed as percent released relative to the total G6PD content.

The next data set has as its system C57BL/6 mice. Description: In vivo safety assessment, mouse intranasal (pulmonary) delivery model. On the procedure:
Body weights were recorded on days 1, 8 and 15. On day 15, BAL was performed and used for total and differential cell counts. Mice were euthanized on day 15, and whole lung was fixed in 10% formalin, embedded in paraffin, sectioned and H&E stained for subsequent injury scoring by board-certified lung pathologist (Table 1B provides scoring criteria). Scoring was done blindly. Sera were obtained from blood collected by cardiac puncture and tested for renal and metabolic function outcomes.
Table 1. […] Safety outcomes in mouse pulmonary delivery model (A). […] Outcome measures of safety included body weight, renal function tests, measures of lung injury in bronchoalveolar lavage (BAL), and histologic appearance of tissue sections from formalin-fixed and paraffin-embedded lungs.

The mark [3] stands for this setting: mean ± SEM, BAL on day 15, intranasal 30 μL, 25 mM, 10 doses.
Where [4] appears, read: mean ± SEM, serum, intranasal 30 μL, 25 mM, 10 doses.

Consider `OC1C(O)[C@H](S)OC(CS)[C@@H]1O` (stereo partly drawn) [Compound 1, 1,6-dithio-6-deoxy-β-D-galactopyranose], for which, in data set [1], the “concentration needed to cause a 40% decrease in the G′ of the hydrogel (ΔG′=−40%)” value worked out at 0.7 mM. Moreover, in data set [2], the “% release of G6PD (cell toxicity)” value is “minimal and similar to that of the Phosphate Buffered Saline (PBS) control; also recorded: low and similar to the PBS control”. For the same compound, the “systemic or lung toxicity compared to control saline” value in the data set with C57BL/6 mice (intranasal 30 μL of 25 mM daily, 10 doses over 2 weeks, N=10 mice) was “did not cause any discernible systemic or lung toxicity”. Also, in the data set with C57BL/6 mice (setting [3]), the “BAL Eosinophil %” value is given as 0 ± 0%, the “BAL Lymphocyte %” value is 0 ± 0.1%, the “BAL Macrophage %” value was 100 ± 0.1% and the “BAL Neutrophil %” value was determined as 0 ± 0%. In the data set with C57BL/6 mice (setting [3]), the “BAL total cell count” value is “(37.3 ± 7) × 10^4”. Further, the “Lung Injury Score” value with C57BL/6 mice (mean ± SEM, blinded histology score 0-4 per Table 1B, day 15, intranasal 30 μL, 25 mM, 10 doses) is listed as 0.4 ± 0.16. The same compound came in with a Body weight in the data set on C57BL/6 mice (mean ± SEM, intranasal 30 μL, 25 mM, 10 doses over 2 weeks) of 18.6 ± 0.32 g. Moreover, in the data set on C57BL/6 mice (setting [4]), the “Blood urea nitrogen (renal function test)” value was determined as 25 ± 1.3 mg/dL and the “Creatinine (renal function test)” value turned out to be 0.15 ± 0.01 mg/dL.

In the case of `CO[C@]1(CS)O[C@H](CS)C(O)C1O` (stereo partly drawn) [Compound 9, Methyl-1,6-dithio-1,6-dideoxy-β-D-fructofuranoside], the “concentration needed to cause a 40% decrease in the G′ of the hydrogel (ΔG′=−40%)” value in data set [1] amounted to 0.7 mM.

Turning to `OC1C(O)[C@H](O)C(CS)O[C@@H]1O[C@H]1OC(CS)[C@@H](O)C(O)C1O` (stereo partly drawn) [Compound 5, 6,6′-dithio-6,6′-dideoxy-α,α-trehalose], the “concentration needed to cause a 40% decrease in the G′ of the hydrogel (ΔG′=−40%)” value in data set [1] is on record as 1.0 mM.

Consider `CC(=O)N[C@@H](CS)C(=O)O` [NAC, N-acetylcysteine, reference compound], for which the “concentration needed to cause a 40% decrease in the G′ of the hydrogel (ΔG′=−40%)” value in data set [1] is 8 mM. Moreover, the “dose of NAC relative to dithiols needed to achieve the same mucolytic effect (40% change in G′)” value in data set [1] (fold higher dose than dithiols) was 8-10 ×.
